Results taken from article PMC10455244, “Alpha-Mangostin: A Potent Inhibitor of TRPV3 and Pro-Inflammatory Cytokine Secretion in Keratinocytes” (International Journal of Molecular Sciences, 2023).

Key:
TRPV1 = details: read-out: IC50 (µM), channel inhibited TRPV1; cited from earlier work
TRPV3 = molecular target: T1, TRPV3 (Homo sapiens, UniProt Q8NET8); experiment: Whole-cell patch-clamp, 2-APB-evoked TRPV3 current in hTRPV3-overexpressing HEK 293T cells; format: cell-based; parameters: expressed in transfected cells
T1 sequence (Q8NET8 1-790): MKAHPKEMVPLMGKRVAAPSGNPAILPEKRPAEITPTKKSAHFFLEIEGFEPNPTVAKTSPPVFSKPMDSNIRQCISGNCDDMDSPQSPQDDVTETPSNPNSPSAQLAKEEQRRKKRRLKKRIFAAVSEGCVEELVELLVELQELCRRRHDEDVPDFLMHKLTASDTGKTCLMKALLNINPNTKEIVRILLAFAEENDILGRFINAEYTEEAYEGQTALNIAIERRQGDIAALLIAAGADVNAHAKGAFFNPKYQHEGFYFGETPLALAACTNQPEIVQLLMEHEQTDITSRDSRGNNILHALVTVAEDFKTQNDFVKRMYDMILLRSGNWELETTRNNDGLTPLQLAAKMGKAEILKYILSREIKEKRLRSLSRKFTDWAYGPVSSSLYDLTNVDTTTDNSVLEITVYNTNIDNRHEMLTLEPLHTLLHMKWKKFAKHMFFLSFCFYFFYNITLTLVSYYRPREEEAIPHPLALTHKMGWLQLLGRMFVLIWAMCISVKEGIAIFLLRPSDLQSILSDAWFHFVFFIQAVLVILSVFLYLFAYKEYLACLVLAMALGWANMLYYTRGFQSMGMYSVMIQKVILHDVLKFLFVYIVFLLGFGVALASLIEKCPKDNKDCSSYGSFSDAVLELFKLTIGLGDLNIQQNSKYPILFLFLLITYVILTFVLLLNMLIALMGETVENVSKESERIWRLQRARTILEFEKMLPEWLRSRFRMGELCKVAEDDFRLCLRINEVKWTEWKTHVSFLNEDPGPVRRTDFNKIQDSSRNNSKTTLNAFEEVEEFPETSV
From the text: First, we used a conventional whole-cell patch-clamp to record the TRPV3 current in HEK 293T cells overexpressing hTRPV3. Then, different concentrations of alpha-mangostin were perfused into the cells to determine the effects of alpha-mangostin on the TRPV3 current. Alpha-mangostin inhibited 2-APB-evoked TRPV3 current, as shown in a representative cell in Figure 1A.
Figure 1 Alpha-mangostin (α-MG) inhibited the TRPV3 current. […] (A) Alpha-mangostin inhibited 2-APB-evoked current in a representative TRPV3 overexpressing HEK 293T cell. The channel was activated using 100 µM 2-APB and subsequently perfused with solutions containing different concentrations of alpha-mangostin with 100 µM 2-APB. A solution containing 10 µM ruthenium red (RR, a TRP channel inhibitor) and 100 µM 2-APB was perfused at the end. […] Currents were normalized to the maximum response to 2-APB at −100 mV. (C) Alpha-mangostin inhibited carvacrol-evoked current in a representative TRPV3-overexpressing HEK 293T cell. TRPV3 was activated using 1000 µM carvacrol and subsequently perfused with solutions containing different concentrations of alpha-mangostin with 1000 µM carvacrol. A solution containing 10 µM RR and 1000 µM carvacrol was perfused at the end. (D) Summary of normalized currents evoked by carvacrol with or without alpha-mangostin at −100 mV. Currents were normalized to the maximum response carvacrol at −100 mV. (E) Alpha-mangostin inhibited 2-APB-evoked current in NHEK. The channel was activated using 100 µM 2-APB and subsequently perfused with solutions containing different concentrations of alpha-mangostin with 100 µM 2-APB. A solution containing 10 µM 74a (a TRPV3 inhibitor) and 100 µM 2-APB was perfused at the end. […] The right panel summarizes normalized currents evoked by 2-APB with or without alpha-mangostin at −100 mV. Currents were normalized to the maximum response to 2-APB at −100 mV. Data are presented as means ± SEM. ** p < 0.01, *** p < 0.001, **** p < 0.0001.
HEK 293T cells were purchased from the American Type Culture Collection (Cat. No. CRL-3216, ATCC, Manassas, VA, USA). TRPV3-overexpressing HEK 293T cells were supplied by Prof. Wan Lee (Dongguk University College of Medicine, Gyeongju, South Korea). HEK 293T cells expressing TRPV3 mutants (G573S, G573C), TRPV4, TRPA1 were made by transient transfection. These cells were cultured in Dulbecco’s modified Eagle’s medium (DMEM, Welgene, Daegu, Korea) containing 10% fetal bovine serum (FBS; Welgene) and 1% penicillin/streptomycin (P/S; Life Technologies, Carlsbad, CA, USA). […]
[…] Sampling at 10 kHz and low-pass filtering at 5 kHz (w-c) were applied for all recorded currents. Recorded data were analyzed using Clampfit ver. […]

In the case of `COc1c(O)cc2oc3cc(O)c(CC=C(C)C)c(O)c3c(=O)c2c1CC=C(C)C` [Alpha-mangostin], the IC50 (TRPV1) is listed as 0.43 ± 0.27 µM, the “Inhibition of 2-APB-evoked TRPV3 currents” value (TRPV3; 10 µM, 100 µM 2-APB, −100 mV, similar level to 10 µM ruthenium red) is listed as “almost completely inhibited” and the inhibition at 0.3 µM (TRPV3; HEK-293T, 0.3 µM, −100 mV, read-out: Inhibition percentage of TRPV3 current) is listed as 76.6%. For the same compound, the IC50 (TRPV3; hTRPV3-overexpressing HEK 293T, 100 µM 2-APB, at −100 mV, read-out: IC50, inhibition of 2-APB-induced TRPV3 current) was 77 ± 13 nM and the “Reversibility of inhibitory effect on TRPV3 current” value (TRPV3; wash out, 100 µM 2-APB, −60 mV holding potential) was “partly reversible”.
